Measured values taken from patent US10696642B2, “TEAD transcription factor autopalmitoylation inhibitors” (The General Hospital Corporation, priority 2015, dated 2020).

How the values were obtained:
JHH7 cells = test: Cell proliferation assay, JHH7; assay type: cell-based, human
Description: (§1) Human cancer cell lines (HuH7, JHH7), transformed MCF10A-YAP and mouse Lats1/2 DKO cells were cultured in 5% FBS containing media. The cells were seeded into 96-well plate with 500 cells/well. Various concentrations of compounds (10 nM to 20 μM) or DMSO control were added into the wells. The cells were further incubated for 2-5 days. The cell viability is determined by using CellTiter Glo (Promega). The data were then normalized with DMSO control and plotted in Prism software Human melanoma cell A375 and dermal fibroblasts are control cells and are tested similarly.
(§2) Assays were performed to measure inhibition of cancer cell proliferation by compound (4). The ability of compound (4) (“CP-1”) to inhibit proliferation cell proliferation in the human hepatocellular carcinoma cell lines HuH7 and JHH7, and in the breast cancer cell line MDA-MB-453. The compound was also tested against the SK-HEP-1 (adenocarcinoma), BT-474 (breast tumor), OCUB-M (breast carcinoma), HCC1143 (ductal carcinoma), EVSA-T (ductal carcinoma) and BT-20 (breast carcinoma) cell lines.

[1] = system: Lats1/2 double knock-out MEF cells; test: Scratch (cell migration) assay; assay type: cell-based, mouse; conditions: 2.5 μM; DMSO control closed the gap within 16-24 hs (FIG. 21)
Description: It has been reported that YAP/TAZ could promote cell invasion and migration (Chan et al., 2008). […] Cells were treated with DMSO control or 2.5 μM of MGH-CP1, and the activities of the compound in blocking the closure of the scratched area was measured. Cells treated with DMSO control migrated fast and closed the gap within 16-24 hs. […] Therefore, further optimization of MGH-CP1 is needed to develop potent and specific inhibitors as chemical tools or “lead” compounds for drug discovery.

TEAD1-Vgll4 interaction = biological target: T1, TEAD1-Vgll4 interaction (Homo sapiens, UniProt P28347); test: Co-immunoprecipitation of TEAD1 and Vgll4; assay type: cell-based; conditions: 0 to 10 μM (FIG. 26)
T1 construct: Myc; expressed in transfected cells; host or cells: HEK293A
T1 sequence (P28347 whole entry): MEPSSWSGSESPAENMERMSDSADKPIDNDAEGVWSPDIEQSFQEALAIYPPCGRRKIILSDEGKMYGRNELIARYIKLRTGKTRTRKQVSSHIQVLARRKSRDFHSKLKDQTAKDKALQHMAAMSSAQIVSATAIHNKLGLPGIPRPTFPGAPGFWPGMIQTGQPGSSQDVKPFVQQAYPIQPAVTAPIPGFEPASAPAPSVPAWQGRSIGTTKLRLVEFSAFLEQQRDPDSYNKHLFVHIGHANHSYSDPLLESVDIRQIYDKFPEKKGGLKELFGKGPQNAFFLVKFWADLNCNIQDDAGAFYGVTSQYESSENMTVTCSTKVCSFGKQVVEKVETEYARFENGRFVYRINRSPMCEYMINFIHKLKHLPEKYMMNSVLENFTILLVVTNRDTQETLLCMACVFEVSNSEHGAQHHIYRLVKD
Description: HEK293A cells were transfected with the indicated above. After 48 h, cells were lysed with lysis buffer (50 mM Tris-HCl, pH 7.3, 150 mM NaCl, 0.5 mM EDTA, 1% Triton X-100, PhosSTOP phosphatase inhibitor cocktail, cOmplete EDTA-free protease inhibitors cocktail). Flag-YAP or Myc-TEAD1 was immunoprecipitated with anti-FLAG M2 magnetic beads (Sigma Aldrich) or anti-c-Myc antibody (M4439, Sigma Aldrich), respectively, overnight with rotation at 4° C. TEAD1 was captured using Protein A/G magnetic resins (Life technologies). Protein-bound resins were washed three times with lysis buffer and processed with SDS-PAGE sample buffer. Blots were probed with anti-c-Myc (Sigma Aldrich), anti-HA (Sigma Aldrich), anti-FLAG M2 (F1804, Sigma Aldrich).
Co-immunoprecipitation assays of TEAD1 and Vgll4 were performed. The ability of compound (4) (“CP-1”) to inhibit to inhibit the TEAD1-Vgll4 interaction was tested at concentrations in the range from 0 to 10 μM.

DHHC11 = test: Selectivity assay: palmitoyl acyltransferase DHHC11; assay type: biochemical; conditions: 0 to 10 μM (FIG. 27)
Description: (§3) Assays were performed to measure inhibition of TEAD4 palmitoylation compared with other palmitoyl acyltransferses, DHHC4, DHHC7 and DHHC11. The ability of compound (4) (“CP-1”) to inhibit palmitoylation was tested at concentrations in the range from 0 to 10 μM and the amount of palmitoylation was quantified.

TEAD4 [2] = biological target: T2, TEAD4 (Homo sapiens, UniProt Q15561); test: TEAD4 palmitoylation in transfected cells; assay type: cell-based; conditions: 1 μM alkyne-palmitic acid probe, 0 to 10 μM compound (FIG. 24)
T2 sequence (Q15561 whole entry, species assumed): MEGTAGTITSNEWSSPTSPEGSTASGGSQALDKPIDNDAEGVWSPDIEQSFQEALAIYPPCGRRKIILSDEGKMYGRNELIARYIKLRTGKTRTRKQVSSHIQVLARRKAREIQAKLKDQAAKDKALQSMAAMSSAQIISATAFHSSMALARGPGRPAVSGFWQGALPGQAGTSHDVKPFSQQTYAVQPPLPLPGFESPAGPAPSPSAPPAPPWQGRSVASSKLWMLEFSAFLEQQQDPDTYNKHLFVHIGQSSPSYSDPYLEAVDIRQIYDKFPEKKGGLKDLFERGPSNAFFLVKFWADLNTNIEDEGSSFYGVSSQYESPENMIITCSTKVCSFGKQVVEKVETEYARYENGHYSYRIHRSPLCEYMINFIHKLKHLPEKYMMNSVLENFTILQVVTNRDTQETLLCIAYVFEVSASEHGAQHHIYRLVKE
Description: Assays were performed to measure inhibition of TEAD1 and TEAD4 palmitoylation in cells that were transfected with TEAD1 and TEAD4 proteins and labelled with 1 μM of alkyne-palmitic acid probe. The ability of compound (4) (“CP-1”) to inhibit palmitoylation was tested at concentrations in the range from 0 to 10 μM and the amount of palmitoylation was quantified.

HuH7 cells = test: Cell proliferation assay, HuH7; assay type: cell-based, human
Description: as §1, §2

TEAD2 = biological target: T3, TEAD2 (Homo sapiens, UniProt Q15562); test: In vitro autopalmitoylation of purified TEAD2 with 1 μM alkyne palmitoyl-CoA; assay type: biochemical
T3 construct: The cDNA encoding human TEAD2 (residues 217-447, TEAD2^217-447) was cloned into a pET29 vector; made in house; host or cells: E. coli BL21(DE3)-T1R
T3 sequence (Q15562 217-447): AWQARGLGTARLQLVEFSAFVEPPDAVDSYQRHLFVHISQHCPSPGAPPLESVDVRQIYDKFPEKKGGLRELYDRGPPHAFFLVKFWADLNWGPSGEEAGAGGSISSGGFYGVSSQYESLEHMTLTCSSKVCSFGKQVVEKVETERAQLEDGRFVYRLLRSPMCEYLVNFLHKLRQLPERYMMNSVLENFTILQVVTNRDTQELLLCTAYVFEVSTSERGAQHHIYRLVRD
Description: Recombinant TEAD2 YBD was incubated with 1 μM of alkyne palmitoyl-CoA for 1 h in the presence of control (DMSO) or increasing 0.5-20 μM of compound 4. Palmitoylation of TEAD2 was detected by streptavidin blot.
Assays were performed to measure inhibition of TEAD2 and TEAD4 palmitoylation in vitro using purified TEAD2 and TEAD4 proteins and 1 μM of alkyne-palmitoyl-CoA. Compound (4) (“CP-1”) was tested at concentrations in the range from 0 to 10 μM and the amount of palmitoylation was quantified.

[3] = system: YAP-independent HCC and breast cancer cell lines; test: Cell proliferation assay, YAP-independent cell lines; assay type: cell-based; conditions: compared with YAP dependent cell lines (FIG. 28 panels G-H)
Description: as §2

TEAD4 [4] = biological target: T2, TEAD4; test: Selectivity assay: TEAD4 palmitoylation (Example 20); assay type: biochemical; conditions: 0 to 10 μM (FIG. 27)
Description: as §3

TEAD1-YAP interaction = TEAD1-YAP interaction (Homo sapiens, UniProt P28347); test: Gal4-TEAD1/YAP reporter assay; assay type: cell-based; conditions: read-out: IC50, inhibition of TEAD1-YAP interaction
TEAD1-YAP interaction, sequence (P28347 167-426 limits assumed): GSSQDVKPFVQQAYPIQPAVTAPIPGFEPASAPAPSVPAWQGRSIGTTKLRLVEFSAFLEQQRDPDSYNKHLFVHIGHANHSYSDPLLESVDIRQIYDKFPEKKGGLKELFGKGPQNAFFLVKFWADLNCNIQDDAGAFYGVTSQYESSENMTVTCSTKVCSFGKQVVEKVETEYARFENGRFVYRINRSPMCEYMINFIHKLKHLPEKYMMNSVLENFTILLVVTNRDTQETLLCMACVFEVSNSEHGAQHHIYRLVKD
Description: FIG. 13 is a plot of inhibition of TEAD1-YAP interaction in a Gal4-TEAD1/YAP reported assay by compound 4. […] (Data are represented as mean+/−SEM, n=3.) FIG. 14 is graph showing compound 4 inhibits YAP-TEAD target gene expression in cancer cell line (HeLa).
To test whether compound 4 can inhibit TEAD's functions, inhibition of the TEAD YAP interaction using the Gal4-TEAD1 reporter system was evaluated.
Gal-UAS-Luc, YAP, Gal4-TEAD1, Gal4-DBD or Myc-TEAD1 and Renilla luciferase control constructs were transfected into 293T cells and 48 h post-transfection, cells were processed using the Dual-Glo luciferase assay system (Promega) following manufacturer's instructions. Luminescence of Firefly and Renilla luciferase activities were quantified using Perkin Elmer EnVision plate reader.

- effect on the interaction of TEAD1 with Vgll4 (TEAD1-Vgll4 interaction): did not affect
- inhibition of palmitoylation with DHHC11 (DHHC11): did not inhibit
- inhibition of TEAD4 palmitoylation in cells (TEAD4 [2]): dose-dependently inhibited
- IC50 (HuH7 cells; Homo sapiens, Huh-7, FIG. 28 panel C): 1600 nM
- inhibition of TEAD2 YBD autopalmitoylation in vitro (TEAD2; 1 μM alkyne palmitoyl-CoA, 1 h, 0.5-20 μM compound, streptavidin blot (FIG. 9)): dose-dependently inhibits
- inhibition of TEAD2 palmitoylation in vitro (TEAD2; purified TEAD2, 1 μM alkyne-palmitoyl-CoA, 0 to 10 μM compound (FIG. 23)): dose-dependently inhibited
- inhibition of TEAD4 palmitoylation (TEAD4 [4]): dose-dependently inhibited
- IC50 (TEAD1-YAP interaction): 83 nM
Structure (SMILES): O=C(CSc1nnc[nH]1)Nc1ccc(C23CC4CC(CC(C4)C2)C3)cc1 [Compound 4]
- inhibition of cell proliferation, dose dependency (JHH7 cells; JHH7 (FIG. 28 panel A)): dose-dependently inhibits
- inhibition of YAP-dependent cancer cell proliferation (JHH7 cells; JHH, 500 cells/well, 10 μM (FIG. 18)): inhibits
- inhibition of cell migration (closure of the scratched area) [1]: did not migrate
- inhibition of cell proliferation, dose dependency (HuH7 cells; HuH7 (FIG. 28 panel A)): dose-dependently inhibits
- inhibition of YAP-dependent cancer cell proliferation (HuH7 cells; HuH7, 500 cells/well, 10 μM (FIG. 19)): inhibits
- inhibition of proliferation of YAP-independent cell lines [3]: less effective
